# Assay results from patent publication US6964975B2, “Isoxazole and thiazole compounds and use thereof as medicine” (Kirin Beer Kabushiki Kaisha, priority 2000, dated 2005).
# Target: T1, human EDG-2 (Homo sapiens, UniProt Q92633)
# T1 construct: cDNA of the cloned human EDG-2 was introduced into pEFneo, which is an animal expression vector; expressed in transfected cells; host or cells: HepG2
# Test: Inhibitory activity on LPA-induced elevation of intracellular Ca2+ level
# Type: cell-based
# Settings: 50% inhibition of elevation of intracellular Ca2+ level by LPA, human EDG-2/HepG2 cells, fura-2
# Description: The human EDG-2 expression plasmid was introduced into HepG2 cells by electroporation. After the introduction, culturing was continued while exchanging selective media every 3 to 4 days, thereby obtaining an expressed colony. Regarding these cells, Ca-influx and cell-proliferation by LPA, level of [^3H] LPA binding and the like were inspected to select a cell line which highly expresses human EDG-2 (human EDG-2/HepG2).
# Human EDG-2/HepG2 cells were washed and then suspended in 0.1% BSA (bovine serum albumin)-containing HEPES buffer. A fluorescent indicator, fura-2/AM (Wako Pure Chemical Industries, Ltd.), was added, and the mixture was shaken at room temperature for 45 minutes so that the indicator is included in the cell. Cells were washed again and then suspended in 0.1% BSA-containing HEPES buffer, and intracellular Ca^2+ level was assayed using FDSS2000 (Hamamatsu Photonics). […] Each test compound was added to the cell suspension followed by the addition of LPA, thereby examining the inhibitory activity of the test compound on the function of LPA for elevating the intracellular Ca level. […] The lower the IC50 value, the higher the antagonistic activity on the LPA receptor.
# T1 sequence (Q92633 whole entry): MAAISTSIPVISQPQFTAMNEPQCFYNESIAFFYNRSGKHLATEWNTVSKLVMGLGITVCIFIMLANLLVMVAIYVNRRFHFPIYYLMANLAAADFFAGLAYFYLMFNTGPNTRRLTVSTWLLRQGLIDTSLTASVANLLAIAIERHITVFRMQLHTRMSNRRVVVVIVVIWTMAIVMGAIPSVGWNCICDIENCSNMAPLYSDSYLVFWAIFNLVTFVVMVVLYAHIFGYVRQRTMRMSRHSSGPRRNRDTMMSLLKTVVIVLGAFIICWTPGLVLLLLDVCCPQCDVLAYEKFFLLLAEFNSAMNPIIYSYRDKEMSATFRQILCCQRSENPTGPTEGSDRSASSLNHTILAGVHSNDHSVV
row,IC50 [µM],SMILES
1,3 to 10,"Cc1noc(-c2ccc(OC(F)(F)F)cc2)c1NC(=O)OC(C)c1ccccc1 (stereo not drawn) [Compound 35, 1-Phenylethyl N-[5-[4-(trifluoromethoxy)phenyl]-3-methyl-4-isoxazolyl]carbamate]"
2,3 to 10,"Cc1noc(-c2ccc(OC(F)(F)F)cc2)c1NC(=O)OC(C)c1ccccc1Cl (stereo not drawn) [Compound 36, 1-(2-Chlorophenyl)ethyl N-[5-[4-(trifluoromethoxy)phenyl]-3-methyl-4-isoxazolyl]carbamate]"
3,30,"Cc1ccc(-c2onc(C)c2NC(=O)OC(C)c2ccccc2)cc1 (stereo not drawn) [Compound 37, 1-Phenylethyl N-[3-methyl-5-(4-methylphenyl)-4-isoxazolyl]carbamate]"
4,10,"Cc1ccc(-c2onc(C)c2NC(=O)OC(C)c2ccccc2Cl)cc1 (stereo not drawn) [Compound 38, 1-(2-Chlorophenyl)ethyl N-[3-methyl-5-(4-methylphenyl)-4-isoxazolyl]carbamate]"
5,10,"Cc1noc(-c2cccc(Cl)c2)c1NC(=O)OC(C)c1ccccc1Cl (stereo not drawn) [Compound 39, 1-(2-Chlorophenyl)ethyl N-[5-(3-chlorophenyl)-3-methyl-4-isoxazolyl]carbamate]"
6,10,"Cc1noc(-c2ccc(F)cc2)c1NC(=O)OC(C)c1ccccc1 (stereo not drawn) [Compound 40, 1-Phenylethyl N-[5-(4-fluorophenyl)-3-methyl-4-isoxazolyl]carbamate]"
7,3 to 10,"Cc1noc(-c2ccc(F)cc2)c1NC(=O)OC(C)c1ccccc1Cl (stereo not drawn) [Compound 41, 1-(2-Chlorophenyl)ethyl N-[5-(4-fluorophenyl)-3-methyl-4-isoxazolyl]carbamate]"
8,10,"Cc1noc(-c2ccccc2F)c1NC(=O)OC(C)c1ccccc1 (stereo not drawn) [Compound 42, 1-Phenylethyl N-[5-(2-fluorophenyl)-3-methyl-4-isoxazolyl]carbamate]"
9,3 to 10,"Cc1noc(-c2ccccc2F)c1NC(=O)OC(C)c1ccccc1Cl (stereo not drawn) [Compound 43, 1-(2-Chlorophenyl)ethyl N-[5-(2-fluorophenyl)-3-methyl-4-isoxazolyl]carbamate]"
10,3,"Cc1noc(-c2ccc(OC(F)(F)F)cc2)c1NC(=O)O[C@H](C)c1ccccc1Br [Compound 44, (1R)-1-(2-Bromophenyl)ethyl N-[3-methyl-5-[4-(trifluoromethoxy)phenyl]-4-isoxazolyl]carbamate]"
11,3,"Cc1noc(-c2ccc(OC(F)(F)F)cc2)c1NC(=O)OC(C)c1ccccc1F (stereo not drawn) [Compound 45, 1-(2-Fluorophenyl)ethyl N-[3-methyl-5-[4-(trifluoromethoxy)phenyl]-4-isoxazolyl]carbamate]"
12,3 to 10,"Cc1noc(-c2ccc(C#N)cc2)c1NC(=O)OC(C)c1ccccc1 (stereo not drawn) [Compound 46, 1-Phenylethyl N-[5-(4-cyanophenyl)-3-methyl-4-isoxazolyl]carbamate]"
13,3 to 10,"Cc1ccc(-c2onc(C)c2NC(=O)O[C@H](C)c2ccccc2Br)cc1 [Compound 48, (1R)-1-(2-Bromophenyl)ethyl N-[3-methyl-5-(4-methylphenyl)-4-isoxazolyl]carbamate]"
14,10 to 30,"Cc1ccc(-c2onc(C)c2NC(=O)OC(C)c2ccccc2F)cc1 (stereo not drawn) [Compound 49, 1-(2-Fluorophenyl)ethyl N-[3-methyl-5-(4-methylphenyl)-4-isoxazolyl]carbamate]"

# More lines, now with the values behind:
row,SMILES,IC50 [µM]
1,"Cc1onc(-c2ccccc2)c1NC(=O)OCc1ccccc1 [Compound 2, Benzyl N-(5-methyl-3-phenyl-4-isoxazolyl)carbamate]",30 to 100
2,"Cc1noc(-c2ccccc2)c1NC(=O)OC(C)c1ccccc1Cl (stereo not drawn) [Compound 3, 1-(2-Chlorophenyl)ethyl N-(3-methyl-5-phenyl-4-isoxazolyl)carbamate]",3
3,"Cc1ccc(-c2noc(C)c2NC(=O)OC(C)c2ccccc2Cl)cc1 (stereo not drawn) [Compound 5, 1-(2-Chlorophenyl)ethyl N-[5-methyl-3-(4-methylphenyl)-4-isoxazolyl]carbamate]",10 to 30
4,"Cc1onc(-c2ccc([N+](=O)[O-])cc2)c1NC(=O)OC(C)c1ccccc1Cl (stereo not drawn) [Compound 6, 1-(2-Chlorophenyl)ethyl N-[5-methyl-3-(4-nitrophenyl)-4-isoxazolyl]carbamate]",10
5,"Cc1noc(-c2ccccc2)c1NC(=O)OCc1ccccc1 [Compound 7, Benzyl N-(3-methyl-5-phenyl-4-isoxazolyl)carbamate]",30
6,"Cc1onc(-c2ccc(CO)cc2)c1NC(=O)OC(C)c1ccccc1Cl (stereo not drawn) [Compound 8, 1-(2-Chlorophenyl)ethyl N-[3-[4-(hydroxymethyl)phenyl]-5-methyl-4-isoxazolyl]carbamate]",3 to 10
7,"Cc1onc(-c2ccccc2)c1NC(=O)O[C@H](C)c1ccccc1 [Compound 9, (1R)-1-Phenylethyl N-(5-methyl-3-phenyl-4-isoxazolyl)carbamate]",10 to 30
8,"Cc1onc(-c2ccccc2)c1NC(=O)O[C@@H](C)c1ccccc1 [Compound 10, (1S)-1-Phenylethyl N-(5-methyl-3-phenyl-4-isoxazolyl)carbamate]",≥ 100
9,"Cc1onc(-c2ccc(OC(F)(F)F)cc2)c1NC(=O)OC(C)c1ccccc1Cl (stereo not drawn) [Compound 11, 1-(2-Chlorophenyl)ethyl N-[5-methyl-3-[4-(trifluoromethoxy)phenyl]-4-isoxazolyl]carbamate]",10 to 30
10,"Cc1onc(-c2ccccc2)c1NC(=O)OC(C)c1ccccc1 (stereo not drawn) [Compound 12, 1-Phenylethyl N-(5-methyl-3-phenyl-4-isoxazolyl)carbamate]",30 to 100
11,"Cc1onc(-c2cccc(Br)c2)c1NC(=O)OC(C)c1ccccc1Cl (stereo not drawn) [Compound 13, 1-(2-Chlorophenyl)ethyl N-[3-(3-bromophenyl)-5-methyl-4-isoxazolyl]carbamate]",30
12,"Cc1ccccc1C(C)OC(=O)Nc1c(-c2ccccc2)noc1C (stereo not drawn) [Compound 14, 1-(2-Methylphenyl)ethyl N-(5-methyl-3-phenyl-4-isoxazolyl)carbamate]",30 to 100
13,"Cc1onc(-c2cccc(C(F)(F)F)c2)c1NC(=O)OC(C)c1ccccc1Cl (stereo not drawn) [Compound 15, 1-(2-Chlorophenyl)ethyl N-[5-methyl-3-[3-(trifluoromethyl)phenyl]-4-isoxazolyl]carbamate]",30
14,"Cc1onc(-c2ccc(F)cc2)c1NC(=O)OC(C)c1ccccc1Cl (stereo not drawn) [Compound 16, 1-(2-Chlorophenyl)ethyl N-[3-(4-fluorophenyl)-5-methyl-4-isoxazolyl]carbamate]",3 to 10
15,"Cc1onc(-c2ccccc2)c1NC(=O)O[C@H](C)c1ccccc1Cl [Compound 17, (1R)-1-(2-Chlorophenyl)ethyl N-(5-methyl-3-phenyl-4-isoxazolyl)carbamate]",3
16,"Cc1noc(-c2ccccc2)c1NC(=O)O[C@H](C)c1ccccc1Cl [Compound 18, (1R)-1-(2-Chlorophenyl)ethyl N-(3-methyl-5-phenyl-4-isoxazolyl)carbamate]",3
17,"Cc1onc(-c2ccccc2)c1NC(=O)OC(C)c1ccccc1F (stereo not drawn) [Compound 19, 1-(2-Fluorophenyl)ethyl N-(5-methyl-3-phenyl-4-isoxazolyl)carbamate]",3 to 10
18,"Cc1onc(-c2cccc(F)c2)c1NC(=O)OC(C)c1ccccc1Cl (stereo not drawn) [Compound 21, 1-(2-Chlorophenyl)ethyl N-[3-(3-fluorophenyl)-5-methyl-4-isoxazolyl]carbamate]",3
19,"Cc1onc(-c2ccccc2)c1NC(=O)O[C@H](C)c1ccccc1Br [Compound 22, (1R)-1-(2-Bromophenyl)ethyl N-(5-methyl-3-phenyl-4-isoxazolyl)carbamate]",3 to 10
20,"Cc1onc(-c2ccccc2)c1NC(=O)OC(C)c1ccccc1Br (stereo not drawn) [Compound 23, 1-(2-Bromophenyl)ethyl N-(5-methyl-3-phenyl-4-isoxazolyl)carbamate]",10
21,"CC(OC(=O)Nc1c(Cl)nsc1-c1ccccc1Cl)c1ccccc1 (stereo not drawn) [Compound 25, 1-Phenylethyl N-[3-chloro-5-(2-chlorophenyl)-4-isothiazolyl]carbamate]",30 to 100
22,"Cc1cccc(-c2onc(C)c2NC(=O)OC(C)c2ccccc2)c1 (stereo not drawn) [Compound 27, 1-Phenylethyl N-[3-methyl-5-(3-methylphenyl)-4-isoxazolyl]carbamate]",30
23,"Cc1cccc(-c2onc(C)c2NC(=O)OC(C)c2ccccc2Cl)c1 (stereo not drawn) [Compound 28, 1-(2-Chlorophenyl)ethyl N-[3-methyl-5-(3-methylphenyl)-4-isoxazolyl]carbamate]",10 to 30
24,"Cc1noc(-c2cccc(F)c2)c1NC(=O)OC(C)c1ccccc1 (stereo not drawn) [Compound 29, 1-Phenylethyl N-[5-(3-fluorophenyl)-3-methyl-4-isoxazolyl]carbamate]",10
25,"Cc1noc(-c2cccc(F)c2)c1NC(=O)OC(C)c1ccccc1Cl (stereo not drawn) [Compound 30, 1-(2-Chlorophenyl)ethyl N-[5-(3-fluorophenyl)-3-methyl-4-isoxazolyl]carbamate]",3 to 10
26,"Cc1noc(-c2ccco2)c1NC(=O)OC(C)c1ccccc1 (stereo not drawn) [Compound 31, 1-Phenylethyl N-[5-(2-furyl)-3-methyl-4-isoxazolyl]carbamate]",10
27,"Cc1noc(-c2cccc(F)c2)c1NC(=O)O[C@H](C)c1ccccc1Br [Compound 33, (1R)-1-(2-Bromophenyl)ethyl N-[5-(3-fluorophenyl)-3-methyl-4-isoxazolyl]carbamate]",3 to 10
28,"Cc1noc(-c2cccc(F)c2)c1NC(=O)OC(C)c1ccccc1F (stereo not drawn) [Compound 34, 1-(2-Fluorophenyl)ethyl N-[5-(3-fluorophenyl)-3-methyl-4-isoxazolyl]carbamate]",10
